Experimental data reported in patent US8969565B2, “Imidazo[1,2-b]pyridazine-based compounds, compositions comprising them, and methods of their use” (Lexicon Pharmaceuticals, Inc., priority 2012, dated 2015).

The compounds below were run against T1, AAK1 (Homo sapiens, UniProt Q2M2I8) (assay: P81 filter plate assay). Details: full-length human AAK1, Mu2 substrate.
T1 construct: HA; expressed in transfected cells; host or cells: HEK293F
Assay type: biochemical
Protocol: Compounds were serially diluted into a Labcyte LDV plate (Labcyte, cat#LP-0200) using a Mutiprobe (PerkinElmer) and Biomek FX (Beckman Coulter) so that the highest compound concentration was at 96 μM. Compounds were then pinged (75 nL per well) into a Greiner 384-well reaction plate (Greiner, #781076) using an ECHO 550 Liquid Handler (Labcyte). A total of 12 μl reaction buffer (IMAP buffer containing Tween and DTT, from Molecular Devices) was then added to each well of columns 1 and 13 for the negative controls and 12 μl of 2×AAK1 (0.2 nM full-length human protein, NCBI accession no. NP_055726.2) was added to the remaining wells. Enzyme was then pre-incubated with compound for 10 minutes at RT. Reactions were initiated upon Minitrak (PerkinElmer) addition of 12 μl substrate mix containing 2×Mu2 (0.2 μM, full length human protein), 2× cold ATP (2 μM), and 1.3 μCi of hot ^33P-ATP. Reactions proceeded for one hour at RT. Meanwhile, Millipore 384-well P81 filter plates (Millipore, catalog #MZPHNOW10) were placed on a plate washer (Zoom ZW, from Titertek) and pre-wet with 50 μl 1% phosphoric acid. Kinase reactions were then stopped upon addition of 24 μl of 2% phosphoric acid to each well and the Minitrak was then used to transfer 40 μl from each well into the pre-wet Millipore 384-well P81 filter plates. Reaction mixtures were incubated for 10 minutes at RT in the P81 plates, followed by washing five times with 100 μl/well of 1% phosphoric acid using the Zoom filter washer. The bottom of each filter plate was sealed followed by addition of 20 μl Microscint 40 to each well, sealing the top of the plates with Flashplate cover, and then waiting one hour until reading on the TopCount (PerkinElmer).

T1 sequence (Q2M2I8 1-863 isoform Q2M2I8-2): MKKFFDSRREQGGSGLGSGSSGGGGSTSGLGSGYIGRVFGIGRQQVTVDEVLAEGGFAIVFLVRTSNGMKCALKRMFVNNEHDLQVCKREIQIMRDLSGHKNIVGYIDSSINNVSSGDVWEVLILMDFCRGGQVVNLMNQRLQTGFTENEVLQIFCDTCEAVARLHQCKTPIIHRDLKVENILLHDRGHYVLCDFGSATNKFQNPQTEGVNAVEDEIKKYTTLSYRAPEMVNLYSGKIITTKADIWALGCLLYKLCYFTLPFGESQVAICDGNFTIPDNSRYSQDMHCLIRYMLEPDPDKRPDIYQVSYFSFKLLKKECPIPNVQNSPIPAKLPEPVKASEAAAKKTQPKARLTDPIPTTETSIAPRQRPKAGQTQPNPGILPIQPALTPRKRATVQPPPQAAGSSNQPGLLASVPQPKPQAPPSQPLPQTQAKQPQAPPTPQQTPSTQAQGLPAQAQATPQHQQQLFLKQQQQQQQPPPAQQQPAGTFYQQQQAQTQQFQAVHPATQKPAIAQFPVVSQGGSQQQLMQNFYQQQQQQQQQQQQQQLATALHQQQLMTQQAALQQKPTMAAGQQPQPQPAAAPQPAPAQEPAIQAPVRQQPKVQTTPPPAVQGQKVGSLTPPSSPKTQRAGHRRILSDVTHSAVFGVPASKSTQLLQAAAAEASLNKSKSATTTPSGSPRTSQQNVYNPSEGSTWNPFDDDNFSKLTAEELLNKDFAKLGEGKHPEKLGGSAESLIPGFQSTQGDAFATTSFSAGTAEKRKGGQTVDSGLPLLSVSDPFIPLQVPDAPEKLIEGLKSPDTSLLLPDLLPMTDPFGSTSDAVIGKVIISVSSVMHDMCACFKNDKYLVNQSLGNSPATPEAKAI

Compound | IC50
COCCO[C@H]1CCN(c2ccc3ncc(-c4cc(C)cnc4OC)n3n2)C1 [(S)-3-(2-methoxy-5-methylpyridin-3-yl)-6-(3-(2-methoxyethoxy)pyrrolidin-1-yl)imidazo[1,2-b]pyridazine] | ≤ 1000 nM
COCC(=O)N(C)[C@H]1CCN(c2ccc3ncc(-c4cccnc4O)n3n2)C1 [(S)-N-(1-(3-(2-hydroxypyridin-3-yl)imidazo[1,2-b]pyridazin-6-yl)pyrrolidin-3-yl)-2-methoxy-N-methylacetamide] | ≤ 1000 nM
c1cc(-c2cnc3ccc(NCCOC4CCCC4)nn23)cs1 [N-(2-(cyclopentyloxy)ethyl)-3-(thiophen-3-yl)imidazo[1,2-b]pyridazin-6-amine] | ≤ 100 nM
CC(=O)c1cnc2ccc(N3CCN(C(=O)OC(C)C)CC3)nn12 [isopropyl 4-(3-acetylimidazo[1,2-b]pyridazin-6-yl)piperazine-1-carboxylate] | ≤ 100 nM
CCCC(=O)N(C)[C@H]1CCN(c2ccc3ncc(-c4ccncc4)n3n2)C1 [(S)-N-methyl-N-(1-(3-(pyridin-4-yl)imidazo[1,2-b]pyridazin-6-yl)pyrrolidin-3-yl)butyramide] | ≤ 100 nM
COc1cccc(-c2cnc3ccc(NCCOC4CCCC4)nn23)c1 [N-(2-(cyclopentyloxy)ethyl)-3-(3-methoxyphenyl)imidazo[1,2-b]pyridazin-6-amine] | ≤ 100 nM
CCCC(=O)N(C)[C@H]1CCN(c2ccc3ncc(-c4cccnc4OC)n3n2)C1 [(S)-N-(1-(3-(2-methoxypyridin-3-yl)imidazo[1,2-b]pyridazin-6-yl)pyrrolidin-3-yl)-N-methylbutyramide] | ≤ 100 nM
COc1ncccc1-c1cnc2ccc(N3CC(N(C)C(=O)OC(C)(C)C)C3)nn12 [tert-butyl (1-(3-(2-methoxypyridin-3-yl)imidazo[1,2-b]pyridazin-6-yl)azetidin-3-yl)(methyl)carbamate] | ≤ 1000 nM
CCCC(=O)N(C)[C@H]1CCN(c2ccc3ncc(Br)n3n2)C1 [(S)-N-(1-(3-bromoimidazo[1,2-b]pyridazin-6-yl)pyrrolidin-3-yl)-N-methylbutyramide] | ≤ 1000 nM
CC(C)C[C@H](N)C(=O)N1CCN(c2ccc3ncc(Cl)n3n2)CC1 [(S)-2-amino-1-(4-(3-chloroimidazo[1,2-b]pyridazin-6-yl)piperazin-1-yl)-4-methylpentan-1-one] | ≤ 100 nM
CC(C)C[C@H](N)C(=O)N1CCN(c2ccc3nccn3n2)CC1 [(S)-2-amino-1-(4-(imidazo[1,2-b]pyridazin-6-yl)piperazin-1-yl)-4-methylpentan-1-one] | ≤ 1000 nM
CCCC(=O)N(C)[C@H]1CCN(c2ccc3ncc(-c4cccnc4O)n3n2)C1 [(S)-N-(1-(3-(2-hydroxypyridin-3-yl)imidazo[1,2-b]pyridazin-6-yl)pyrrolidin-3-yl)-N-methylbutyramide] | ≤ 100 nM
Cc1ccc(-c2cnc3ccc(NCCOC4CCCC4)nn23)s1 [N-(2-(cyclopentyloxy)ethyl)-3-(5-methylthiophen-2-yl)imidazo[1,2-b]pyridazin-6-amine] | ≤ 100 nM
COCCOC(=O)N(C)[C@H]1CCN(c2ccc3ncc(-c4cccnc4OC)n3n2)C1 [(S)-2-methoxyethyl (1-(3-(2-methoxypyridin-3-yl)imidazo[1,2-b]pyridazin-6-yl)pyrrolidin-3-yl)(methyl)carbamate] | ≤ 100 nM
CN(C(=O)C1CCCC1)[C@H]1CCN(c2ccc3ncc(-c4cccnc4O)n3n2)C1 [Cyclopentanecarboxylic acid {(S)-1-[3-(2-hydroxy-pyridin-3-yl)-imidazo[1,2-b]pyridazin-6-yl]-pyrrolidin-3-yl}-methyl-amide] | ≤ 100 nM

More lines, now with the values ahead:

IC50 | Compound
≤ 10 nM | CC(C)CC(=O)N1CCC[C@H]1CNc1ccc2ncc(-c3ccnc(F)c3)n2n1 [(S)-1-(2-(((3-(2-fluoropyridin-4-yl)imidazo[1,2-b]pyridazin-6-yl)amino)methyl)pyrrolidin-1-yl)-3-methylbutan-1-one]
≤ 10 nM | Cc1cnc2ccc(N3CCN(C(=O)[C@@H](N)C(C)C)CC3)nn12 [(S)-2-amino-3-methyl-1-(4-(3-methylimidazo[1,2-b]pyridazin-6-yl)piperazin-1-yl)butan-1-one]
≤ 100 nM | CN(C(=O)N1CCCC1)[C@H]1CCN(c2ccc3ncc(-c4ccncc4)n3n2)C1 [(S)-N-methyl-N-(1-(3-(pyridin-4-yl)imidazo[1,2-b]pyridazin-6-yl)pyrrolidin-3-yl)pyrrolidine-1-carboxamide]
≤ 10 nM | COC(=O)c1cnn(-c2ccc3ncc(-c4cccnc4OC)n3n2)c1 [methyl 1-(3-(2-methoxypyridin-3-yl)imidazo[1,2-b]pyridazin-6-yl)-1H-pyrazole-4-carboxylate]
≤ 100 nM | Cc1cnc2ccc(N3CCN(C(=O)[C@@H](N)CC(C)C)CC3)nn12 [(S)-2-amino-4-methyl-1-(4-(3-methylimidazo[1,2-b]pyridazin-6-yl)piperazin-1-yl)pentan-1-one]
≤ 100 nM | COC(=O)c1cnn(-c2ccc3ncc(Br)n3n2)c1 [Methyl 1-(3-bromoimidazo[1,2-b]pyridazin-6-yl)-1H-pyrazole-4-carboxylate]
≤ 10 nM | N#Cc1cnc2ccc(NC[C@@H]3CCCN3C(=O)OC3CCCC3)nn12 [(S)-cyclopentyl 2-(((3-cyanoimidazo[1,2-b]pyridazin-6-yl)amino)methyl)pyrrolidine-1-carboxylate]
≤ 10 nM | CC(C)OC(=O)N(C)[C@H]1CCN(c2ccc3ncc(-c4cccnc4OC(F)F)n3n2)C1 [(S)-isopropyl (1-(3-(2-(difluoromethoxy)pyridin-3-yl)imidazo[1,2-b]pyridazin-6-yl)pyrrolidin-3-yl)(methyl)carbamate]
≤ 10 nM | CN(C(=O)CC1CC1)[C@H]1CCN(c2ccc3ncc(-c4cccnc4O)n3n2)C1 [(S)-2-cyclopropyl-N-(1-(3-(2-hydroxypyridin-3-yl)imidazo[1,2-b]pyridazin-6-yl)pyrrolidin-3-yl)-N-methylacetamide]
≤ 10 nM | CC(C)NC(=O)N1CCN(c2ccc3ncc(-c4ccccc4)n3n2)CC1 [N-Isopropyl-4-(3-phenylimidazo[1,2-b]pyridazin-6-yl)piperazine-1-carboxamide]
≤ 10 nM | c1csc(-c2cnc3ccc(NCCOC4CCCC4)nn23)c1 [N-(2-(cyclopentyloxy)ethyl)-3-(thiophen-2-yl)imidazo[1,2-b]pyridazin-6-amine]
≤ 10 nM | CC(C)OC(=O)N(C)[C@H]1CCN(c2ccc3ncc(Br)n3n2)C1 [[(S)-1-(3-Bromo-imidazo[1,2-b]pyridazin-6-yl)-pyrrolidin-3-yl]-methyl-carbamic acid isopropyl ester]
≤ 10 nM | CCCOC(=O)N1CCC[C@H]1CNc1ccc2ncc(Br)n2n1 [(S)-propyl 2-(((3-bromoimidazo[1,2-b]pyridazin-6-yl)amino)methyl)pyrrolidine-1-carboxylate]

These compounds were tested against T1, AAK1 (assay: HEK281 cell-based assay (phospho-mu2 Western blot in transfected HEK293F cells)). Details: 3 hours incubation, read-out: CBA IC50.
Summary of the method: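 After 3 hours at 37° C. with compound (five 3-fold-spaced concentrations, DMEM+0.5% FBS), transiently transfected HEK293F cells expressing full-length human AAK1 and Flag-tagged mu2 were lysed. mu2 phosphorylation was read by anti-phospho-mu2 immunoblot, normalized against total mu2 by anti-Flag blot.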

IC50 | Compound
≤ 10 nM | CCOC(=O)N(C)CCNc1ccc2ncc(-c3ccncc3OC)n2n1 [ethyl (2-((3-(3-methoxypyridin-4-yl)imidazo[1,2-b]pyridazin-6-yl)amino)ethyl)(methyl)carbamate]
≤ 100 nM | CNC(=O)c1ccc(-c2cnc3ccc(NCCN(C(=O)OC(C)C)C(C)C)nn23)cc1 [isopropyl isopropyl(2-((3-(4-(methylcarbamoyl)phenyl)imidazo[1,2-b]pyridazin-6-yl)amino)ethyl)carbamate]
≤ 1000 nM | CCC(C)CNc1ccc2ncc(-c3ccc(CN)cc3)n2n1 (stereo not shown) [3-(4-(aminomethyl)phenyl)-N-(2-methylbutyl)imidazo[1,2-b]pyridazin-6-amine]
≤ 10 nM | NC(=O)c1ccc(-c2cnc3ccc(NCCc4ccccc4OC(F)(F)F)nn23)cc1 [4-(6-((2-(trifluoromethoxy)phenethyl)amino)imidazo[1,2-b]pyridazin-3-yl)benzamide]
≤ 100 nM | COc1cccc(CCNc2ccc3ncc(-c4ccc(CN)cc4)n3n2)c1 [3-(4-(aminomethyl)phenyl)-N-(3-methoxyphenethyl)imidazo[1,2-b]pyridazin-6-amine]
≤ 100 nM | CCN(CCNc1ccc2ncc(-c3ccncc3OC)n2n1)C(=O)OC(C)C [isopropyl ethyl(2-((3-(3-methoxypyridin-4-yl)imidazo[1,2-b]pyridazin-6-yl)amino)ethyl)carbamate]
≤ 1000 nM | CCCCNc1ccc2ncc(-c3ccc(C(=O)NCC(C)N)cc3)n2n1 (stereo not shown) [N-(2-aminopropyl)-4-(6-(butylamino)imidazo[1,2-b]pyridazin-3-yl)benzamide]
≤ 10 nM | COc1ccccc1-c1cnc2ccc(NC[C@@H]3CCCN3C(=O)OC(C)C)nn12 [(S)-isopropyl 2-(((3-(2-methoxyphenyl)imidazo[1,2-b]pyridazin-6-yl)amino)methyl)pyrrolidine-1-carboxylate]
≤ 100 nM | CCOC(=O)N(C)CCNc1ccc2ncc(-c3ccc(C(N)=O)cc3)n2n1 [ethyl (2-((3-(4-carbamoylphenyl)imidazo[1,2-b]pyridazin-6-yl)amino)ethyl)(methyl)carbamate]
